Laboratory results as given in US11141455B2, “Peptide analogues with branched amino acid probe(s)” (priority 2014, dated 2021).

Legend:
human GLP-1 receptor = molecular target: T1, human GLP-1 receptor (Homo sapiens, UniProt P43220); test: cAMP production (HTRF) in CHO-K1 cells expressing GLP-1 receptor; format: cell-based
T1 construct: expressed in transfected cells; host or cells: CHO-K1 cells

human GLP-2 receptor = molecular target: T2, human GLP-2 receptor (Homo sapiens, UniProt O95838); test: cAMP production (HTRF) in CHO-K1 cells expressing GLP-2 receptor; format: cell-based; details: for Emax: CHO-K1, control peptide GLP-2 (1-34), read-out: Max efficacy in % of control peptide; for Emax / EC50: cAMP; for EC50: CHO-K1 human GLP-2 receptor
T2 construct: expressed in transfected cells; host or cells: CHO-K1 cells
T2 sequence (O95838 1-553): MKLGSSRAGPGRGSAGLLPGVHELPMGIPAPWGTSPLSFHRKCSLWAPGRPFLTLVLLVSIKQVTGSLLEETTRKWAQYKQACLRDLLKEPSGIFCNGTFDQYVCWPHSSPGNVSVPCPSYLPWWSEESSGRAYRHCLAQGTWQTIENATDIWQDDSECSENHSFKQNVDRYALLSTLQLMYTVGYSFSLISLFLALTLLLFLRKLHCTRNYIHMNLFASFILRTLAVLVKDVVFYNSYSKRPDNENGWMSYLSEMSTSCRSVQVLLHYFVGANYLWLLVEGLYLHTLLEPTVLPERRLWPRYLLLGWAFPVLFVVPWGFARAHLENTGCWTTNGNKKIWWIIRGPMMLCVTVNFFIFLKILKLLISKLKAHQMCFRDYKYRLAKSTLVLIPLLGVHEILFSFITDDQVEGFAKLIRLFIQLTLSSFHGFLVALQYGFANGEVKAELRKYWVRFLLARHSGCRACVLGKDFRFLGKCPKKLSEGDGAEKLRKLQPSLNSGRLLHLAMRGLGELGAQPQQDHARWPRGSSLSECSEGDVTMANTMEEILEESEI
Method: CHO-K1 cells expressing the human GLP-2 receptor grown in media without antibiotic were detached by gentle flushing with PBS-EDTA (5 mM EDTA), recovered by centrifugation and resuspended in assay buffer (KRH: 5 mM KCl, 1.25 mM MgSO4, 124 mM NaCl, 25 mM HEPES, 13.3 mM Glucose, 1.25 mM KH2PO4, 1.45 mM CaCl2), 0.5 g/l BSA).
12 μl of cells were mixed with 12 μl of the test compound (solubilized in PBS/0.5% BSA and finally diluted from a stock solution of 1 mM) at increasing concentrations in 96 wells plates and then incubated 30 min at room temperature. cAMP production was determined after addition of a lysis buffer and 1 hour incubation, by use of competitive immunoassay using cryptate-labeled anti-cAMP and d2-labeled cAMP (HTRF kit from CisBio) with Delta F percentage values calculated according to the manufacturer specification. Dose response curves were performed in parallel with test compounds, and reference compounds.
The HTRF technology is a titration assay based on a competition between labeled cAMP (exogenous) and cAMP produced by the cell after activation of the […]. The dynamic range of the assay was 3-4 fold meaning that the linear range (which enables conversion from raw data to nM of cAMP) is within that range. […] All experiments were conducted in the presence of the non-selective phosphodiesterase inhibitor IBMX (1 mM in final concentration).
The test compounds were tested in a concentration range from […] to 10^−7M
Data is presented as mean values.

FPR2 receptor = molecular target: T3, FPR2 receptor (Homo sapiens, UniProt P25090); details: cited from earlier work
T3 sequence (P25090 1-351): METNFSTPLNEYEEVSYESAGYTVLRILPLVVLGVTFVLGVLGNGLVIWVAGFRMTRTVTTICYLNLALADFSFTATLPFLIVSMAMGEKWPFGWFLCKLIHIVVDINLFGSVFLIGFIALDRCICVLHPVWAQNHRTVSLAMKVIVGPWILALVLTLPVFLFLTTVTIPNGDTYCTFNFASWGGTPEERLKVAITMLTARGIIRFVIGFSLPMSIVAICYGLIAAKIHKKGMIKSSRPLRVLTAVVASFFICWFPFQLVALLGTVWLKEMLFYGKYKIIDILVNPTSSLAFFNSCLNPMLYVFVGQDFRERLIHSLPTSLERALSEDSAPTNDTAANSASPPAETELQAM

T1 sequence (P43220 24-463): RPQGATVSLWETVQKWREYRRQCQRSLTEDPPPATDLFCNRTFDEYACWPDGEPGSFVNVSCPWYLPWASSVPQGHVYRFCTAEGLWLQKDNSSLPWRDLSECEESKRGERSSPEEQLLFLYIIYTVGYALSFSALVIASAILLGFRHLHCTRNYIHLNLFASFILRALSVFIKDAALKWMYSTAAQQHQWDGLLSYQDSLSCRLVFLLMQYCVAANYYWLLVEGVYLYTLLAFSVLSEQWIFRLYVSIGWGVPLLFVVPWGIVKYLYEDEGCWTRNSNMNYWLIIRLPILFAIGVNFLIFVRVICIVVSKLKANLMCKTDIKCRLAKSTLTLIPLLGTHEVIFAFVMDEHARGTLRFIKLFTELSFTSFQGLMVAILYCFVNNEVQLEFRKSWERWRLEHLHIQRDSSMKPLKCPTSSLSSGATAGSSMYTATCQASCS

Emax (human GLP-2 receptor) [%] | EC50 (human GLP-2 receptor) [nM] | Compound | also measured
– | – | CC[C@H](C)[C@H](NC(=O)[C@H](Cc1ccccc1)NC(=O)[C@H](CCC(=O)O)NC(=O)[C@H](CCCCN)NC(=O)[C@H](C)NC(=O)[C@H](C)NC(=O)[C@H](CCC(N)=O)NC(=O)CNC(=O)[C@H](CCC(=O)O)NC(=O)[C@H](CC(C)C)NC(=O)[C@H](Cc1ccc(O)cc1)NC(=O)[C@H](CO)NC(=O)[C@H](CO)NC(=O)[C@@H](NC(=O)[C@H](CC(=O)O)NC(=O)[C@H](CO)NC(=O)[C@@H](NC(=O)[C@H](Cc1ccccc1)NC(=O)[C@@H](NC(=O)CNC(=O)[C@H](CCC(=O)O)NC(=O)CNC(=O)[C@H](Cc1c[nH]cn1)NC(C)=O)[C@@H](C)O)[C@@H](C)O)C(C)C)C(=O)N[C@@H](C)C(=O)N[C@@H](Cc1c[nH]c2ccccc12)C(=O)N[C@@H](CC(C)C)C(=O)N[C@H](C(=O)N[C@@H](CCCCN)C(=O)NCC(=O)N[C@@H](CCCNC(=N)N)C(=O)NCC(=O)N[C@@H](CCCCNC(=O)[C@H](CCCCN)NC(=O)[C@H](CCCCN)NC(C)=O)C(N)=O)C(C)C [Analogue 2] | EC50 (human GLP-1 receptor): 0.04 nM; Emax (human GLP-1 receptor; CHO-K1, read-out: Max efficacy in % of control peptide): 102%
101 | 3.4 | CC[C@H](C)[C@H](NC(=O)[C@H](Cc1ccccc1)NC(=O)[C@H](CC(=O)O)NC(=O)[C@H](CCCNC(=N)N)NC(=O)[C@H](C)NC(=O)[C@H](C)NC(=O)[C@H](CC(C)C)NC(=O)[C@H](CC(N)=O)NC(=O)[C@H](CC(=O)O)NC(=O)[C@H](CC(C)C)NC(=O)[C@@H](NC(=O)[C@@H](NC(=O)[C@H](CC(N)=O)NC(=O)[C@H](CCSC)NC(=O)[C@H](CCC(=O)O)NC(=O)[C@H](CC(=O)O)NC(=O)[C@H](CO)NC(=O)[C@H](Cc1ccccc1)NC(=O)[C@H](CO)NC(=O)CNC(=O)[C@H](CC(=O)O)NC(=O)[C@H](C)NC(=O)[C@H](Cc1c[nH]cn1)NC(C)=O)[C@@H](C)O)[C@@H](C)CC)C(=O)N[C@@H](CC(N)=O)C(=O)N[C@@H](Cc1c[nH]c2ccccc12)C(=O)N[C@@H](CC(C)C)C(=O)N[C@H](C(=O)N[C@@H](CCC(N)=O)C(=O)N[C@H](C(=O)N[C@@H](CCCCN)C(=O)N[C@H](C(=O)N[C@H](C(=O)N[C@@H](CC(=O)O)C(=O)N[C@@H](CCCCNC(=O)[C@H](CCCCN)NC(=O)[C@H](CCCCN)NC(C)=O)C(N)=O)[C@@H](C)O)[C@@H](C)CC)[C@@H](C)O)[C@@H](C)CC [Analogue 3] | –
102 | 5.9 | CC[C@H](C)[C@H](NC(=O)[C@H](Cc1ccccc1)NC(=O)[C@H](CC(=O)O)NC(=O)[C@H](CCCNC(=N)N)NC(=O)[C@H](C)NC(=O)[C@H](C)NC(=O)[C@H](CC(C)C)NC(=O)[C@H](CC(N)=O)NC(=O)[C@H](CC(=O)O)NC(=O)[C@H](CC(C)C)NC(=O)[C@@H](NC(=O)[C@@H](NC(=O)[C@H](CC(N)=O)NC(=O)[C@H](CCSC)NC(=O)[C@H](CCC(=O)O)NC(=O)[C@H](CC(=O)O)NC(=O)[C@H](CO)NC(=O)[C@H](Cc1ccccc1)NC(=O)[C@H](CO)NC(=O)CNC(=O)[C@H](CC(=O)O)NC(=O)CNC(=O)[C@H](Cc1c[nH]cn1)NC(C)=O)[C@@H](C)O)[C@@H](C)CC)C(=O)N[C@@H](CC(N)=O)C(=O)N[C@@H](Cc1c[nH]c2ccccc12)C(=O)N[C@@H](CC(C)C)C(=O)N[C@H](C(=O)N[C@@H](CCC(N)=O)C(=O)N[C@H](C(=O)N[C@@H](CCCCN)C(=O)N[C@H](C(=O)N[C@H](C(=O)N[C@@H](CC(=O)O)C(=O)N[C@@H](CCCCNC(=O)[C@H](CCCCN)NC(=O)[C@H](CCCCN)NC(C)=O)C(N)=O)[C@@H](C)O)[C@@H](C)CC)[C@@H](C)O)[C@@H](C)CC [Analogue 4] | –
95.1 | 8.9 | CC[C@H](C)[C@H](NC(=O)[C@H](Cc1ccccc1)NC(=O)[C@H](CC(=O)O)NC(=O)[C@H](CCCNC(=N)N)NC(=O)[C@H](C)NC(=O)[C@H](C)NC(=O)[C@H](CC(C)C)NC(=O)[C@H](CC(N)=O)NC(=O)[C@H](CC(=O)O)NC(=O)[C@H](CC(C)C)NC(=O)[C@@H](NC(=O)[C@@H](NC(=O)[C@H](CC(N)=O)NC(=O)[C@H](CCSC)NC(=O)[C@H](CCC(=O)O)NC(=O)[C@H](CC(=O)O)NC(=O)[C@H](CO)NC(=O)[C@H](Cc1ccccc1)NC(=O)[C@H](CO)NC(=O)CNC(=O)[C@H](CC(=O)O)NC(=O)[C@@H](C)NC(=O)[C@H](Cc1c[nH]cn1)NC(C)=O)[C@@H](C)O)[C@@H](C)CC)C(=O)N[C@@H](CC(N)=O)C(=O)N[C@@H](Cc1c[nH]c2ccccc12)C(=O)N[C@@H](CC(C)C)C(=O)N[C@H](C(=O)N[C@@H](CCC(N)=O)C(=O)N[C@H](C(=O)N[C@@H](CCCCN)C(=O)N[C@H](C(=O)N[C@H](C(=O)N[C@@H](CC(=O)O)C(=O)N[C@@H](CCCCNC(=O)[C@H](CCCCN)NC(=O)[C@H](CCCCN)NC(C)=O)C(N)=O)[C@@H](C)O)[C@@H](C)CC)[C@@H](C)O)[C@@H](C)CC [Analogue 5] | –
– | – | CC[C@H](C)[C@H](NC(=O)[C@H](Cc1ccccc1)NC(=O)[C@H](CC(=O)O)NC(=O)[C@H](CCCNC(=N)N)NC(=O)[C@H](C)NC(=O)[C@H](C)NC(=O)[C@H](CC(C)C)NC(=O)[C@H](CC(N)=O)NC(=O)[C@H](CC(=O)O)NC(=O)[C@H](CC(C)C)NC(=O)[C@@H](NC(=O)[C@@H](NC(=O)[C@H](CC(N)=O)NC(=O)[C@H](CCSC)NC(=O)[C@H](CCC(=O)O)NC(=O)[C@H](CC(=O)O)NC(=O)[C@H](CO)NC(=O)[C@H](Cc1ccccc1)NC(=O)[C@H](CO)NC(=O)CNC(=O)[C@H](CC(=O)O)NC(=O)[C@H](C)NC(=O)[C@@H](N)Cc1c[nH]cn1)[C@@H](C)O)[C@@H](C)CC)C(=O)N[C@@H](CC(N)=O)C(=O)N[C@@H](Cc1c[nH]c2ccccc12)C(=O)N[C@@H](CC(C)C)C(=O)N[C@H](C(=O)N[C@@H](CCC(N)=O)C(=O)N[C@H](C(=O)N[C@@H](CCCCN)C(=O)N[C@H](C(=O)N[C@H](C(=O)N[C@@H](CC(=O)O)C(=O)N[C@@H](CCCNC(=N)N)C(=O)O)[C@@H](C)O)[C@@H](C)CC)[C@@H](C)O)[C@@H](C)CC [GLP-2 (1-34), reference compound] | Hill Slope (human GLP-2 receptor; cAMP dose response curve): 0.78
– | – | Ac-Ala-Met-Val-Ser-Glu-Phe-Leu-Lys-Gln-Ala-Trp-NH2 (Ac-AMVSEFLKQAW-NH2; listed as Homo sapiens) [Control peptide 2] | agonism at the FPR2 receptor as described in the literature (FPR2 receptor): described as agonist to the FPR2 receptor- none of them as significantly potent
– | – | Ac-Ala-Met-Val-Ser-Glu-Phe-Leu-Lys-Gln-Ala-Trp-Phe-Ile-Glu-Asn-Glu-Glu-Gln-Glu-Tyr-Val-Gln-Thr-Val-Lys-OH (Ac-AMVSEFLKQAWFIENEEQEYVQTVK-OH; listed as Homo sapiens) [Control peptide 1] | agonism at the FPR2 receptor as described in the literature (FPR2 receptor): described as agonist to the FPR2 receptor- none of them as significantly potent
